Like-named read-outs stand apart in the source and are kept apart here.
Columns and labels:
pPKB S473 in A2058 cells = assay: In-cell Western blot, pPKB S473; assay type: cell-based; settings: Homo sapiens, 1 hour treatment
Description: (§1) Cells are fixed with 4% paraformaldehyde for 30 minutes at room temperature, washed 2 times with 1% BSA in PBS, permeabilized with 0.1% Triton X-100 in PBS/1% BSA for 30 minutes at room temperature and blocked with 5% goat serum in PBS/1% BSA/0.1% Triton X-100 for 30 minutes at room temperature. […] Cells are washed 3 times 5 minutes with PBS/1% BSA/0.1% triton and plate scanned with the Odyssey Infrared Scanning system using both 700 and 800 nm channels. […] To correct for background staining in the data analysis wells are treated only with secondary antibodies.
(§2) For data analysis the mean background signal from channel 700 nm and 800 nm are subtracted from each signal in channel 700 nm and 800 nm, respectively.
(§3) IC50 values of each compound are determined by plotting the normalized pPBK S473 and pS6 S235/S236 signals, respectively, versus the compound concentrations (in logarithmic scale) and then by fitting a sigmoidal dose-response curve with variable slope to the data using GraphPad™ Prism.

[1] = target: T1, N-terminally GST-tagged mTOR (Homo sapiens, UniProt P42345); assay: In vitro mTOR binding assay (LanthaScreen TR-FRET)
T1 construct: truncated version: amino acids 1360-2549; purchased Life Technologies PR8683B
Description: A 10-point 4-fold serial dilution (highest concentration at 10 μmol/L and lowest concentration at 40 μmol/L) of each compound was tested for mTOR binding in duplicate in a 384-well plate. […] After 30 min incubation at RT, time-resolved FRET was measured with a Synergy 4 multi-mode microplate reader (Biotek Instruments) using the following settings: 100 microsecs delay before data collection, 200 microsecs time for data collection, 10 measurements per data point.
IC50 values of each compound were determined by plotting the emission ratio versus the compound concentrations (in logarithmic scale) and then by fitting a sigmoidal dose-response curve with variable slope to the data using GraphPad™ Prism.

[2] = system: pS6 S235/S236 in A2058 cells; assay: In-cell Western blot, pS6 S235/S236; assay type: cell-based; settings: Homo sapiens, 1 hour treatment
Description: as §1, §2, §3

[3] = LanthaScreen kinase binding, Tracer 314, read-out: mTOR IC50 (binding)

T1 sequence (P42345 1360-2549): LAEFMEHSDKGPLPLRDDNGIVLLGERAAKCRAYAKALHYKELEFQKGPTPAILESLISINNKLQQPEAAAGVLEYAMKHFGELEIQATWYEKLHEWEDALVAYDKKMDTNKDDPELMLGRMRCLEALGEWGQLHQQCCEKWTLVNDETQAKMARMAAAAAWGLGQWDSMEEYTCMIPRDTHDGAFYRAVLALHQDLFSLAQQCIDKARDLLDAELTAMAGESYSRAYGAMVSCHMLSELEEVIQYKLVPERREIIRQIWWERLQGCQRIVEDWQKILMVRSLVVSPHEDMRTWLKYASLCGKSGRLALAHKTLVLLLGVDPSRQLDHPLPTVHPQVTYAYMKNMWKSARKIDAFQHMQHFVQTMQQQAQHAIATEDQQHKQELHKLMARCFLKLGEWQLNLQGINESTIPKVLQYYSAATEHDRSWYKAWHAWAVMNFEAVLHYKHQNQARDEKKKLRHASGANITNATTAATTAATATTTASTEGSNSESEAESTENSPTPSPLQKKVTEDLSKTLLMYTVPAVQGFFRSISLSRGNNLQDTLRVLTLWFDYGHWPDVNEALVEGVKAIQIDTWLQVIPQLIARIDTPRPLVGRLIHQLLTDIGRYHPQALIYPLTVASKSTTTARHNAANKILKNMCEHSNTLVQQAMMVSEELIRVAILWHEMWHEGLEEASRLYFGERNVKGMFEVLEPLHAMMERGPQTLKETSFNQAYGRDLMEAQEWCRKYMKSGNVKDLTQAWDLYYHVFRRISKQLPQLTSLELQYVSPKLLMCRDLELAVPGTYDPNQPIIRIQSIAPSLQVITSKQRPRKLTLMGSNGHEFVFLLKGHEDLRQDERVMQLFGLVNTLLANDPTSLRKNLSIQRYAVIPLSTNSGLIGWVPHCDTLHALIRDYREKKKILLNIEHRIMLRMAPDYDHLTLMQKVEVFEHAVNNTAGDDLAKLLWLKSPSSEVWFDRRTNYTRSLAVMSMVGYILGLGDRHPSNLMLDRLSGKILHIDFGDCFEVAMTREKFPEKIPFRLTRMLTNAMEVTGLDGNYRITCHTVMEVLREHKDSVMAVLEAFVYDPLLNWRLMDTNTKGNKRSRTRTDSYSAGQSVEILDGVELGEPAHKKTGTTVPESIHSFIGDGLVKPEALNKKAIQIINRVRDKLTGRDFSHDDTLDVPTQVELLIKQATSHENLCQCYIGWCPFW

C[C@@H]1COCCN1c1nc(-c2cnc(N)cc2C(F)F)nc(N2CCOC[C@H]2CO)n1 [Compound 77, [(3R)-4-[4-[6-amino-4-(difluoromethyl)-3-pyridyl]-6-[(3R)-3-methylmorpholin-4-yl]-1,3,5-triazin-2-yl]morpholin-3-yl]methanol]
IC50 (pPKB S473 in A2058 cells; A2058, 1 h): 476 nM

Nc1cc(C(F)F)c(-c2cc(N3CCOCC3)nc(N3C4CCC3COC4)n2)cn1 [Compound 23, 5-(2-(3-oxa-8-azabicyclo[3.2.1]octan-8-yl)-6-morpholinopyrimidin-4-yl)-4-(difluoromethyl)pyridin-2-amine]
IC50 [1, 3]: 40 nM | IC50 (pPKB S473 in A2058 cells; A2058, 1 h): 285 nM | IC50 ([2]; A2058, 1 h): 230 nM

Nc1ncc(-c2cc(N3CCOCC3)nc(N3CCOCC3)n2)c(C(F)F)n1 [Compound 17, 4′-(difluoromethyl)-2,6-dimorpholino-[4,5′-bipyrimidin]-2′-amine]
IC50 [1, 3]: 155 nM | IC50 [2]: 149 nM

CC1(C)COCCN1c1nc(-c2cnc(N)cc2C(F)F)nc(N2CCOC[C@H]2CO)n1 [Compound 68, [(3R)-4-[4-[6-amino-4-(difluoromethyl)-3-pyridyl]-6-(3,3-dimethylmorpholin-4-yl)-1,3,5-triazin-2-yl]morpholin-3-yl]methanol]
IC50 (pPKB S473 in A2058 cells; A2058, 1 h): 682 nM | IC50 ([2]; A2058, 1 h): 415 nM

COC[C@@H]1COCCN1c1nc(-c2cnc(N)cc2C(F)F)nc(N2CCOCC2(C)C)n1 [Compound 67, 4-(difluoromethyl)-5-[4-(3,3-dimethylmorpholin-4-yl)-6-[(3R)-3-(methoxymethyl)morpholin-4-yl]-1,3,5-triazin-2-yl]pyridin-2-amine]
IC50 (pPKB S473 in A2058 cells; A2058, 1 h): 787 nM | IC50 ([2]; A2058, 1 h): 395 nM

Nc1ncc(-c2nc(N3CCOCC3)nc(N3CCOCC3)n2)c(C(F)F)n1 [Compound 2]
IC50 [1, 3]: 59 nM

Nc1cc(C(F)F)c(-c2nc(N3C4CCC3COC4)nc(N3C4COCC3COC4)n2)cn1 [Compound 38, 4-(difluoromethyl)-5-[4-(3,7-dioxa-9-azabicyclo[3.3.1]nonan-9-yl)-6-(3-oxa-8-azabicyclo[3.2.1]octan-8-yl)-1,3,5-triazin-2-yl]pyridin-2-amine]
IC50 (pPKB S473 in A2058 cells; A2058, 1 h): 219 nM | IC50 ([2]; A2058, 1 h): 79 nM

CC(C)[C@@H]1COCCN1c1nc(-c2cnc(N)cc2C(F)F)nc(N2CCOC[C@H]2C(C)C)n1 [Compound 56, 5-[4,6-bis[(3R)-3-isopropylmorpholin-4-yl]-1,3,5-triazin-2-yl]-4-(difluoromethyl)pyridin-2-amine]
IC50 (pPKB S473 in A2058 cells; A2058, 1 h): > 10000 nM | IC50 ([2]; A2058, 1 h): > 10000 nM

C[C@@H]1COCCN1c1nc(-c2cnc(N)cc2C(F)F)nc(N2C[C@@H]3C[C@H]2CO3)n1 [Compound 53, 4-(difluoromethyl)-5-[4-[(3R)-3-methylmorpholin-4-yl]-6-[(1S,4S)-2-oxa-5-azabicyclo[2.2.1]heptan-5-yl]-1,3,5-triazin-2-yl]pyridin-2-amine]
IC50 (pPKB S473 in A2058 cells; A2058, 1 h): 1320 nM | IC50 ([2]; A2058, 1 h): 612 nM

Nc1cc(C(F)F)c(-c2nc(N3CCOCC3)nc(N3C4CCCC3COC4)n2)cn1 [Compound 80, 4-(difluoromethyl)-5-[4-morpholino-6-(3-oxa-9-azabicyclo[3.3.1]nonan-9-yl)-1,3,5-triazin-2-yl]pyridin-2-amine]
IC50 (pPKB S473 in A2058 cells; A2058, 1 h): 94 nM | IC50 ([2]; A2058, 1 h): 117 nM

Nc1cc(C(F)F)c(-c2nc(N3CCOCC3)nc(N3C4COCC3COC4)n2)cn1 [Compound 84, 4-(difluoromethyl)-5-[4-(3,7-dioxa-9-azabicyclo[3.3.1]nonan-9-yl)-6-morpholino-1,3,5-triazin-2-yl]pyridin-2-amine]
IC50 (pPKB S473 in A2058 cells; A2058, 1 h): 116 nM | IC50 ([2]; A2058, 1 h): 146 nM

CC[C@H]1COCCN1c1nc(-c2cnc(N)cc2C(F)F)nc(N2CCOC[C@H]2C)n1 [Compound 85, 4-(difluoromethyl)-5-[4-[(3S)-3-ethylmorpholin-4-yl]-6-[(3R)-3-methylmorpholin-4-yl]-1,3,5-triazin-2-yl]pyridin-2-amine]
IC50 (pPKB S473 in A2058 cells; A2058, 1 h): 249 nM | IC50 ([2]; A2058, 1 h): 241 nM

Nc1cc(C(F)(F)F)c(-c2cc(N3CCOCC3)nc(N3CCOCC3)n2)cn1 [reference compound]
IC50 (pPKB S473 in A2058 cells; A2058, 1 h): 263 nM | IC50 ([2]; A2058, 1 h): 277 nM

C[C@H]1COCCN1c1nc(-c2cnc(N)cc2C(F)F)nc(N2C3CCC2COC3)n1 [Compound 10, 5-(4-(3-oxa-8-azabicyclo[3.2.1]octan-8-yl)-6-((S)-3-methylmorpholino)-1,3,5-triazin-2-yl)-4-(difluoromethyl)pyridin-2-amine]
IC50 (pPKB S473 in A2058 cells; A2058, 1 h): 138 nM | IC50 ([2]; A2058, 1 h): 93 nM

C[C@@H]1COCCN1c1nc(-c2cnc(N)cc2C(F)F)nc(N2C[C@H]3C[C@@H]2CO3)n1 [Compound 52, 4-(difluoromethyl)-5-[4-[(3R)-3-methylmorpholin-4-yl]-6-[(1R,4R)-2-oxa-5-azabicyclo[2.2.1]heptan-5-yl]-1,3,5-triazin-2-yl]pyridin-2-amine]
IC50 (pPKB S473 in A2058 cells; A2058, 1 h): 1050 nM | IC50 ([2]; A2058, 1 h): 332 nM

Nc1cc(C(F)F)c(-c2nc(N3CCOCC34CCC4)nc(N3CCOCC34CCC4)n2)cn1 [Compound 55, 5-[4,6-bis(8-oxa-5-azaspiro[3.5]nonan-5-yl)-1,3,5-triazin-2-yl]-4-(difluoromethyl)pyridin-2-amine]
IC50 (pPKB S473 in A2058 cells; A2058, 1 h): 942 nM | IC50 ([2]; A2058, 1 h): 526 nM

Nc1cc(C(F)F)c(-c2nc(N3C4COCC3COC4)nc(N3C4COCC3COC4)n2)cn1 [Compound 37, 5-[4,6-bis(3,7-dioxa-9-azabicyclo[3.3.1]nonan-9-yl)-1,3,5-triazin-2-yl]-4-(difluoromethyl)pyridin-2-amine]
IC50 [1]: 49 nM

C[C@H]1COCCN1c1nc(-c2cnc(N)nc2C(F)F)nc(N2CCOC[C@@H]2C)n1 [Compound 7]
IC50 [1, 3]: 71 nM

Nc1ncc(-c2nc(N3CCOCC3)cc(N3CCOCC3)n2)c(C(F)F)n1 [Compound 19, 4′-(difluoromethyl)-4,6-dimorpholino-[2,5′-bipyrimidin]-2′-amine]
IC50 [1, 3]: 158 nM

Nc1cc(C(F)F)c(-c2nc(N3CCOCC3)nc(N3C4CCC3COC4)n2)cn1 [Compound 4, 5-(4-(3-oxa-8-azabicyclo[3.2.1]octan-8-yl)-6-morpholino-1,3,5-triazin-2-yl)-4-(difluoromethyl)pyridin-2-amine]
IC50 (pPKB S473 in A2058 cells; A2058, 1 h): 178 nM | IC50 ([2]; A2058, 1 h): 135 nM

C[C@@H]1COCCN1c1nc(-c2cnc(N)cc2C(F)F)nc(N2CC3CC(C2)O3)n1 [Compound 51, 4-(difluoromethyl)-5-[4-[(3R)-3-methylmorpholin-4-yl]-6-(6-oxa-3-azabicyclo[3.1.1]heptan-3-yl)-1,3,5-triazin-2-yl]pyridin-2-amine]
IC50 (pPKB S473 in A2058 cells; A2058, 1 h): 875 nM | IC50 ([2]; A2058, 1 h): 352 nM

C[C@H]1COCCN1c1nc(-c2cnc(N)nc2C(F)F)nc(N2CCNCC2)n1 [Compound 15, (S)-4-(difluoromethyl)-5-(4-(3-methylmorpholino)-6-(piperazin-1-yl)-1,3,5-triazin-2-yl)pyrimidin-2-amine]
IC50 (pPKB S473 in A2058 cells; A2058, 1 h): 49 nM | IC50 ([2]; A2058, 1 h): 286 nM

Nc1ncc(-c2nc(N3CCOCC3)nc(N3C4CCC3COC4)n2)c(C(F)F)n1 [Compound 5, 5-(4-(3-oxa-8-azabicyclo[3.2.1]octan-8-yl)-6-morpholino-1,3,5-triazin-2-yl)-4-(difluoromethyl)pyrimidin-2-amine]
IC50 (pPKB S473 in A2058 cells; A2058, 1 h): 85 nM | IC50 ([2]; A2058, 1 h): 135 nM

C[C@@H]1COCCN1c1nc(-c2cnc(N)cc2C(F)F)nc(N2C3COCC2C3)n1 [Compound 50, 4-(difluoromethyl)-5-[4-[(3R)-3-methylmorpholin-4-yl]-6-(3-oxa-6-azabicyclo[3.1.1]heptan-6-yl)-1,3,5-triazin-2-yl]pyridin-2-amine]
IC50 (pPKB S473 in A2058 cells; A2058, 1 h): 1560 nM | IC50 ([2]; A2058, 1 h): 407 nM

CC1(C)COCCN1c1nc(-c2cnc(N)cc2C(F)F)nc(N2CCN(C3CC3)CC2)n1 [Compound 70, 5-[4-(4-cyclopropylpiperazin-1-yl)-6-(3,3-dimethylmorpholin-4-yl)-1,3,5-triazin-2-yl]-4-(difluoromethyl)pyridin-2-amine]
IC50 (pPKB S473 in A2058 cells; A2058, 1 h): 914 nM | IC50 ([2]; A2058, 1 h): 906 nM

C[C@H]1COCCN1c1nc(-c2cnc(N)cc2C(F)F)nc(N2CCNCC2)n1 [Compound 14, (S)-4-(difluoromethyl)-5-(4-(3-methylmorpholino)-6-(piperazin-1-yl)-1,3,5-triazin-2-yl)pyridin-2-amine]
IC50 (pPKB S473 in A2058 cells; A2058, 1 h): 350 nM | IC50 ([2]; A2058, 1 h): 883 nM

CC[C@@H]1COCCN1c1nc(-c2cnc(N)cc2C(F)F)nc(N2CCOC[C@H]2C)n1 [Compound 86, 4-(difluoromethyl)-5-[4-[(3R)-3-ethylmorpholin-4-yl]-6-[(3R)-3-methylmorpholin-4-yl]-1,3,5-triazin-2-yl]pyridin-2-amine]
IC50 (pPKB S473 in A2058 cells; A2058, 1 h): 231 nM | IC50 ([2]; A2058, 1 h): 236 nM

COCCN1CCN(c2nc(-c3cnc(N)cc3C(F)F)nc(N3CCOCC3(C)C)n2)CC1 [Compound 71, 4-(difluoromethyl)-5-[4-(3,3-dimethylmorpholin-4-yl)-6-[4-(2-methoxyethyl)piperazin-1-yl]-1,3,5-triazin-2-yl]pyridin-2-amine]
IC50 (pPKB S473 in A2058 cells; A2058, 1 h): 2340 nM | IC50 ([2]; A2058, 1 h): 3140 nM

CC[C@@H]1COCCN1c1nc(-c2cnc(N)cc2C(F)F)nc(N2CCOC[C@H]2CC)n1 [Compound 54, 5-[4,6-bis[(3R)-3-ethylmorpholin-4-yl]-1,3,5-triazin-2-yl]-4-(difluoromethyl)pyridin-2-amine]
IC50 (pPKB S473 in A2058 cells; A2058, 1 h): 354 nM | IC50 ([2]; A2058, 1 h): 209 nM

C[C@H]1COCCN1c1nc(-c2cnc(N)nc2C(F)F)nc(N2C3CCC2COC3)n1 [Compound 11, 5-(4-(3-oxa-8-azabicyclo[3.2.1]octan-8-yl)-6-((S)-3-methylmorpholino)-1,3,5-triazin-2-yl)-4-(difluoromethyl)pyrimidin-2-amine]
IC50 (pPKB S473 in A2058 cells; A2058, 1 h): 61 nM | IC50 ([2]; A2058, 1 h): 96 nM

C[C@H]1COCCN1c1cc(-c2cnc(N)nc2C(F)F)nc(N2CCOCC2)n1 [Compound 28, (S)-4′-(difluoromethyl)-6-(3-methylmorpholino)-2-morpholino-[4,5′-bipyrimidin]-2′-amine]
IC50 [1, 3]: 23 nM

C[C@H]1COCCN1c1nc(-c2cnc(N)cc2C(F)(F)F)nc(N2CCOCC2)n1 [Compound 8 *, 5-[4-[(3S)-3-methylmorpholin-4-yl]-6-morpholino-1,3,5-triazin-2-yl]-4-(trifluoromethyl)pyridin-2-amine]
IC50 (pPKB S473 in A2058 cells): 196 nM | IC50 [2]: 90 nM
